According to patent publication EP1770089A1, “Pyranodibenzofuran derivatives with antifungal and antibacterial activity” (priority 2005, dated 2007):
Converted amounts (≈) assume the structure as drawn.

How the values were obtained:
[1] = test system: M. tuberculosis RIF resistant (2004/0499); experiment: microbe, parasite or virus in culture; assay type: cell-based; conditions: Mycobacterium tuberculosis
[2] = test system: M. tuberculosis INH resistant (2003/1762); experiment: microbe, parasite or virus in culture; assay type: cell-based; conditions: Mycobacterium tuberculosis

NNC(=O)c1ccncc1 [INH, isoniazid, reference compound]
MIC99 [1]: 0.1 µg/mL (≈ 0.729 µM)
MIC99 [2]: 5 µg/mL (≈ 36.5 µM)

CC1(C)CCc2c(ccc3oc4ccccc4c23)O1 [Compound 16, 1,2-dihydro-3,3-dimethyl-3H-benzofuro[3,2-f][1]benzopyran]
MIC99 [1]: 1 µg/mL (≈ 3.96 µM)
MIC99 [2]: 1 µg/mL (≈ 3.96 µM)

CC1(C)C=Cc2c(ccc3oc4ccccc4c23)O1 [Compound 9, 3,3-dimethyl-3H-benzofuro[3,2-f][1]benzopyran]
MIC99 [1]: 5 µg/mL (≈ 20 µM)
MIC99 [2]: 5 µg/mL (≈ 20 µM)
